Here are results for 22 molecules from patent US9630961B2, “Arginine methyltransferase inhibitors and uses thereof” (Epizyme, Inc., priority 2013, dated 2017).

The experiment concerns the target T1, PRMT3 (Homo sapiens, UniProt O60678).
T1 construct: GST-tagged PRMT3; made in house; host or cells: E. coli BL21(DE3) Gold
The experiment can be described thus: PRMT3 Biochemical Assay (3H-SAM Flashplate, peptide substrate). As to conditions: 30 min preincubation, room temperature. The source says: S-adenosylmethionine (SAM), S-adenosylhomocysteine (SAH), bicine, Tween20, dimethylsulfoxide (DMSO), bovine skin gelatin (BSG), isopropyl-β-D-thiogalactopyranoside (IPTG), and Tris(2-carboxyethyl)phosphine hydrochloride solution (TCEP) were purchased from Sigma-Aldrich at the highest level of purity possible. ^3H-SAM was purchase from American Radiolabeled Chemicals with a specific activity of 80 Ci/mmol. 384-well streptavidin Flashplates were purchased from PerkinElmer.
Peptide containing the classic RMT substrate motif was synthesized with an N-terminal linker-affinity tag motif and a C-terminal amide cap by 21st Century Biochemicals. The peptide was purified by high-performance liquid chromatography (HPLC) to greater than 95% purity and confirmed by liquid chromatography mass spectrometry (LC-MS). The sequence was Biot-Ahx-[…]-amide (SEQ ID NO.:11).
Full-length human PRMT3 (NM_005788.3) isoform 1 transcript clone was amplified from an HEK 293 cDNA library and subcloned into pGEX-KG (GE Life Sciences). The resulting construct encodes an N-terminal GST tag and a thrombin cleavage sequence ([…] […] […] […]) (SEQ ID NO.: 12) fused directly to Cys 2 of PRMT3.
E. coli (BL21(DE3) Gold, Stratagene) made competent by the CaCl2 method were transformed with the PRMT3 construct and ampicillin selection. Protein over-expression was accomplished by growing the PRMT3 expressing E. coli clone and inducing expression with 0.3 mM IPTG at 16° C. The culture was grown for 12 hours, harvested by centrifugation, and stored at −80° C. for purification.
GST-tagged PRMT3 eluted with 25-400 mM phosphate in buffer C. Protein was concentrated and buffer was exchanged to 20 mM Tris, 150 mM NaCl, 5% glycerol, 5 mM β-mercaptoethanol, pH7.8 by ultrafiltration. The purity of recovered protein was 70%.
General Procedure for PRMT3 Enzyme Assays on Peptide Substrates.
The assays were all performed in a buffer consisting of 20 mM Bicine (pH=7.6), 1 mM TCEP, 0.005% BSG, and 0.002% Tween 20, prepared on the day of use. Compounds in 100% DMSO (1 ul) were spotted into a polypropylene 384-well V-bottom plates (Greiner) using a Platemate Plus outfitted with a 384-channel head (Thermo Scientific). DMSO (1 ul) was added to Columns 11, 12, 23, 24, rows A-H for the maximum signal control and 1 ul of SAH, a known product and inhibitor of PRMT3, was added to columns 11, 12, 23, 24, rows I-P for the minimum signal control. A cocktail (40 ul) containing the PRMT3 enzyme was added by Multidrop Combi (Thermo-Fisher). The compounds were allowed to incubate with PRMT3 for 30 min at room temperature, then a cocktail (10 ul) containing SAM and peptide was added to initiate the reaction (final volume=51 ul). The final concentrations of the components were as follows: PRMT3 was 0.5 nM, ^3H-SAM was 100 nM, non-radiolabeled SAM was 1.8 uM, peptide was 330 nM, SAH in the minimum signal control wells was 1 mM, and the DMSO concentration was 2%. The assays were stopped by the addition of potassium chloride (10 ul) to a final concentration of 100 mM. 50 ul of the reaction in the 384-well polypropylene plate was then transferred to a 384-well Flashplate and the biotinylated peptides were allowed to bind to the streptavidin surface for at least 1 hour before being washed once with 0.1% Tween20 in a Biotek ELx405 plate washer. The plates were then read in a PerkinElmer TopCount plate reader to measure the quantity of ^3H-labeled peptide bound to the Flashplate surface, measured as disintegrations per minute (dpm) or alternatively, referred to as counts per minute (cpm).
Where dpm=disintegrations per minute, cmpd=signal in assay well, and min and max are the respective minimum and maximum signal controls.
Where top and bottom are the normally allowed to float, but may be fixed at 100 or 0 respectively in a 3-parameter fit. The Hill Coefficient normally allowed to float but may also be fixed at 1 in a 3-parameter fit. […]

T1 sequence (O60678 with tags, fused parts or gaps): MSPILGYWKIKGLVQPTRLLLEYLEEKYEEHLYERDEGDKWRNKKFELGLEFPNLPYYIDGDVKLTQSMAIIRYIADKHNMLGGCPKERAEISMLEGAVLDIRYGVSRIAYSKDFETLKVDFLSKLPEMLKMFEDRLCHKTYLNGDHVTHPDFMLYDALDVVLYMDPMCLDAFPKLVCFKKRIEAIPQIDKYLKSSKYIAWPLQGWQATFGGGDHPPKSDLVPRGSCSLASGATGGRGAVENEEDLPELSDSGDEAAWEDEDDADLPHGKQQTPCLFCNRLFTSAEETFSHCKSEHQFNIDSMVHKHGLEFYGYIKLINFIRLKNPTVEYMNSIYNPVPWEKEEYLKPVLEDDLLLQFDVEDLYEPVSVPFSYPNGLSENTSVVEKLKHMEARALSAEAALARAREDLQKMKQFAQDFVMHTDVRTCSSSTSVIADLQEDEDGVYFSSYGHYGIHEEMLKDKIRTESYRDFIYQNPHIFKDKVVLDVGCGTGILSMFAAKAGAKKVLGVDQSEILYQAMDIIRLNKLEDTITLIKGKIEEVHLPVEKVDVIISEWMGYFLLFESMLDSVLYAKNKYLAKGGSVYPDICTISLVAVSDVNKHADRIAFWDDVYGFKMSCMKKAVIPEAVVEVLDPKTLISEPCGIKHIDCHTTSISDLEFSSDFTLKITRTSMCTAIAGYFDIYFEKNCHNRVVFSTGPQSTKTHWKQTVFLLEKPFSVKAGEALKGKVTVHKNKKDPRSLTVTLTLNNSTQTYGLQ

`CN(CCN)Cc1c[nH]nc1-c1ccsc1` [Compound 3] yielded an IC50 of 3.01 to 10 µM.
As for `CN(CCN)Cc1c[nH]nc1-c1cncnc1` [Compound 4], the figure is ≥ 10 µM.
With `CN(CCN)Cc1c[nH]nc1-c1cccs1` [Compound 5], the 50% inhibitory concentration (IC50) was ≥ 10 µM.
As for `CN(CCN)Cc1c[nH]nc1-c1ccco1` [Compound 6], the figure is 3.01 to 10 µM; as for `CN(CCN)Cc1c[nH]nc1-c1ccoc1` [Compound 7], ≥ 10 µM.
As for `CN(CCN)Cc1c[nH]nc1-c1cnn(C)c1` [Compound 8], the figure is ≥ 10 µM; as for `CN(CCN)Cc1c[nH]nc1-c1ccc2scnc2c1` [Compound 9], 3.01 to 10 µM.
`Cc1noc(C)c1-c1n[nH]cc1CN(C)CCN` [Compound 10]: the IC50 is ≥ 10 µM.
For the molecule `COc1ncc(-c2n[nH]cc2CN(C)CCN)cn1` [Compound 11], the half-maximal inhibitory concentration (IC50) is ≥ 10 µM.
As for `CN(CCN)Cc1c[nH]nc1-c1cn[nH]c1` [Compound 12], the figure is ≥ 10 µM.
As for `CN(CCN)Cc1c[nH]nc1-c1cnc2[nH]ccc2c1` [Compound 13], the figure is 1.01 to 3 µM; as for `CN(CCN)Cc1c[nH]nc1-c1cc[nH]n1` [Compound 14], ≥ 10 µM.
In the case of `CN(CCN)Cc1c[nH]nc1-c1ccnn1C` [Compound 15], the concentration for half-maximal inhibition (IC50) is ≥ 10 µM.
As for `CCn1cc(-c2n[nH]cc2CN(C)CCN)cn1` [Compound 16], the figure is 3.01 to 10 µM; as for `CN(CCN)Cc1c[nH]nc1-c1cnn(-c2ccccc2)c1` [Compound 17], 3.01 to 10 µM.
For `CN(CCN)Cc1c[nH]nc1-c1cnn(CCO)c1` [Compound 18] the value was ≥ 10 µM; for `CN(CCN)Cc1c[nH]nc1-c1ccc2cnn(C)c2c1` [Compound 19, N^1-methyl-N^1-((3-(1-methyl-1H-indazol-6-yl)-1H-pyrazol-4-yl)methyl)ethane-1,2-diamine], 3.01 to 10 µM; for `CN(CCN)Cc1c[nH]nc1-c1ccc2ncnn2c1` [Compound 20], 3.01 to 10 µM.
For `CN(CCN)Cc1c[nH]nc1-c1ccc2nccn2c1` [Compound 21, N^1-((3-(imidazo[1,2-a]pyridin-6-yl)-1H-pyrazol-4-yl)methyl)-N^1-methylethane-1,2-diamine] the value was 3.01 to 10 µM; for `CC(C)n1cc(-c2n[nH]cc2CN(C)CCN)cn1` [Compound 22], 3.01 to 10 µM.
In the case of `CC(C)Cn1cc(-c2n[nH]cc2CN(C)CCN)cn1` [Compound 23, N^1-((2′-isobutyl-3,4′-bi(1H-pyrazol)-4-yl)methyl)-N^1-methylethane-1,2-diamine], the IC50 lay in the range of 3.01 to 10 µM.
As for `CN(CCN)Cc1c[nH]nc1-c1cnn(Cc2ccccc2)c1` [Compound 24, N^1-((1′-benzyl-3,4′-bi(1H-pyrazol)-4-yl)methyl)-N^1-methylethane-1,2-diamine], the figure is 3.01 to 10 µM.
